Results reported in ChEMBL document CHEMBL1201862, “PubChem BioAssay data set” (2004).
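Briefly, cells in 96-well plates were exposed to five compound concentrations for 48 h, and endpoints were estimated by linear interpolation. Here, GI50 denotes the concentration required for 50% inhibition of growth.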 The source made the active and inactive calls. No stated cut-off is given here; in the data, active = GI50 up to about 1.1 µM and inactive = higher. Non-standard residues stand in square brackets, D forms with d. Residues, ends and D or L forms follow the SMILES beside them. *: point of attachment. Ac5c = NC1(C(=O)O)CCCC1; Boc = CC(C)(C)OC(=O)*; tBu = CC(C)(C)*

Tests used:
Experiment in all cases: DTP human tumour cell line panel, 48 h
ACHN = system: ACHN
UACC-257 = system: UACC-257
SNB-75 = system: SNB-75
K562 = system: K562
NCI-H522 = system: NCI-H522
NCI-H460 = system: NCI-H460
RXF 393 = system: RXF 393
A549 = system: A549
MDA-N = system: MDA-N
SK-MEL-5 = system: SK-MEL-5
HOP-92 = system: HOP-92
OVCAR-3 = system: OVCAR-3
DU-145 = system: DU-145
MDA-MB-231 = system: MDA-MB-231
MDA-MB-435 = system: MDA-MB-435
786-0 = system: 786-0
NCI/ADR-RES = system: NCI/ADR-RES
CAKI-1 = system: CAKI-1
RPMI-8226 = system: RPMI-8226
BT-549 = system: BT-549

SMILES	GI50 (ACHN)	GI50 (UACC-257)	GI50 (SNB-75)	GI50 (K562)	GI50 (NCI-H522)	GI50 (NCI-H460)	GI50 (RXF 393)	GI50 (A549)	GI50 (MDA-N)	GI50 (SK-MEL-5)	GI50 (HOP-92)	GI50 (OVCAR-3)	GI50 (DU-145)	GI50 (MDA-MB-231)	GI50 (MDA-MB-435)	GI50 (786-0)	GI50 (NCI/ADR-RES)	GI50 (CAKI-1)	GI50 (RPMI-8226)	GI50 (BT-549)
CCCCCCCCCCCCCCCC(=O)OCC(O)C1OC(=O)C(O)=C1O (centres undefined)	34 µM (inactive)	> 100 µM (inactive)	16.1 µM (inactive)	27.8 µM (inactive)	34.4 µM (inactive)	> 100 µM (inactive)	36.7 µM (inactive)	21.8 µM (inactive)	30.8 µM (inactive)	> 100 µM (inactive)	< 0.01 µM (active)	> 100 µM (inactive)	> 100 µM (inactive)	28.8 µM (inactive)	21 µM (inactive)	19.6 µM (inactive)	29.3 µM (inactive)	43.9 µM (inactive)		
CCOC(=O)c1c2c(n(-c3ccc(OC)cc3)c1C)C(=O)C(=O)c1ccccc1-2	1.14 µM (inactive)	0.491 µM (active)	2.16 µM (inactive)	0.488 µM (active)	2.71 µM (inactive)	1.43 µM (inactive)	1.84 µM (inactive)	1.51 µM (inactive)		1.06 µM (active)	1.85 µM (inactive)	0.419 µM (active)	1.52 µM (inactive)	1.29 µM (inactive)	0.19 µM (active)	1.87 µM (inactive)	0.869 µM (active)	1.42 µM (inactive)	0.647 µM (active)	2.02 µM (inactive)
Cc1ccc(NC(=O)CCc2nnc(N)o2)cc1	> 100 µM (inactive)	> 100 µM (inactive)	> 100 µM (inactive)	> 75.7 µM (inactive)	> 100 µM (inactive)	> 100 µM (inactive)	> 100 µM (inactive)	> 100 µM (inactive)		> 100 µM (inactive)	> 100 µM (inactive)	> 100 µM (inactive)				> 100 µM (inactive)		> 100 µM (inactive)	> 100 µM (inactive)	
CCOC(=O)C1=C(O)C(=O)c2cc(OC)ccc2C1=O	> 100 µM (inactive)	35.1 µM (inactive)	20.9 µM (inactive)	> 100 µM (inactive)	55.7 µM (inactive)	> 100 µM (inactive)	> 100 µM (inactive)	96.2 µM (inactive)		49.1 µM (inactive)	> 100 µM (inactive)	> 100 µM (inactive)				> 100 µM (inactive)		> 100 µM (inactive)	> 100 µM (inactive)	
CC(C)(C)/C(O)=C\c1nc2cc(F)c(F)cc2[nH]c1=O	> 100 µM (inactive)	> 100 µM (inactive)	> 100 µM (inactive)	> 100 µM (inactive)		> 100 µM (inactive)	> 100 µM (inactive)			> 100 µM (inactive)	> 100 µM (inactive)		25.7 µM (inactive)	25.1 µM (inactive)	> 100 µM (inactive)	> 100 µM (inactive)	> 100 µM (inactive)	> 100 µM (inactive)		> 100 µM (inactive)
COc1ccc(/C(Cl)=C(\C=O)c2ccc(Br)cc2)cc1OC	> 72.6 µM (inactive)	> 100 µM (inactive)	2.81 µM (inactive)	> 61 µM (inactive)	51.8 µM (inactive)	> 68.9 µM (inactive)	20.7 µM (inactive)	62.5 µM (inactive)		> 100 µM (inactive)	17.7 µM (inactive)	> 100 µM (inactive)				27.7 µM (inactive)		> 100 µM (inactive)	3.69 µM (inactive)	
CCOC(=O)c1sc2c(c1OC(=O)c1ccc(Cl)cc1Cl)c(=O)n(-c1ccccc1)c(=S)n2-c1ccccc1	4.85 µM (inactive)	35.3 µM (inactive)	7.01 µM (inactive)	3.75 µM (inactive)	4.74 µM (inactive)	5.24 µM (inactive)	> 100 µM (inactive)	8.55 µM (inactive)	22 µM (inactive)	11.7 µM (inactive)	3.49 µM (inactive)	21 µM (inactive)	31.1 µM (inactive)	20.9 µM (inactive)	> 51.2 µM (inactive)	25.6 µM (inactive)	9.66 µM (inactive)	17.9 µM (inactive)	4.58 µM (inactive)	
CN1CCN(c2ccc3[nH]c(-c4ccc5[nH]c(CCCc6ccc(N(CCCl)CCCl)cc6)nc5c4)nc3c2)CC1	> 100 µM (inactive)	> 100 µM (inactive)	> 100 µM (inactive)	> 100 µM (inactive)	> 100 µM (inactive)	> 100 µM (inactive)	> 100 µM (inactive)	> 100 µM (inactive)	> 100 µM (inactive)	> 100 µM (inactive)	> 100 µM (inactive)		> 100 µM (inactive)	> 100 µM (inactive)	> 100 µM (inactive)	> 100 µM (inactive)	> 100 µM (inactive)	> 100 µM (inactive)	> 100 µM (inactive)	
O=C(O)C12CCC(CC1=O)C2 (centres undefined)	> 100 µM (inactive)	> 100 µM (inactive)	> 100 µM (inactive)	> 100 µM (inactive)	> 100 µM (inactive)	> 100 µM (inactive)		> 100 µM (inactive)		> 100 µM (inactive)	> 100 µM (inactive)	> 100 µM (inactive)			> 100 µM (inactive)	> 100 µM (inactive)	> 100 µM (inactive)	> 100 µM (inactive)	> 100 µM (inactive)	> 100 µM (inactive)
CCOc1ccc2nc(NC(=O)C(=O)C(C#N)CC(C)(C)C=O)sc2c1 (centres undefined)	> 100 µM (inactive)	> 100 µM (inactive)	> 100 µM (inactive)	52.7 µM (inactive)	49.9 µM (inactive)	> 100 µM (inactive)	> 100 µM (inactive)	> 100 µM (inactive)		> 100 µM (inactive)	> 100 µM (inactive)	> 100 µM (inactive)				> 100 µM (inactive)		> 100 µM (inactive)	75.3 µM (inactive)	
Cc1ccc([N+](=O)[O-])c2c(NCCNC(=O)Cn3ccnc3[N+](=O)[O-])ccnc12	44.2 µM (inactive)	29.1 µM (inactive)	> 100 µM (inactive)	64.1 µM (inactive)	15.5 µM (inactive)	28.2 µM (inactive)	1.42 µM (inactive)	48.5 µM (inactive)	69.5 µM (inactive)	17.8 µM (inactive)	26.5 µM (inactive)	23.2 µM (inactive)	57.3 µM (inactive)	32 µM (inactive)	94.6 µM (inactive)	34.8 µM (inactive)	> 100 µM (inactive)	31.8 µM (inactive)	96.6 µM (inactive)	
C[N+]1(C)C/C(=C\c2ccc(O)cc2)C(=O)/C(=C/c2ccc(O)cc2)C1	> 100 µM (inactive)	> 100 µM (inactive)	> 100 µM (inactive)		> 100 µM (inactive)	29 µM (inactive)	> 100 µM (inactive)	37.5 µM (inactive)		> 100 µM (inactive)	> 100 µM (inactive)	> 100 µM (inactive)				> 100 µM (inactive)		> 100 µM (inactive)	44.7 µM (inactive)	
CC(=O)OI1NC(=O)c2ccccc21	> 100 µM (inactive)		> 100 µM (inactive)	> 100 µM (inactive)	80.2 µM (inactive)			> 100 µM (inactive)	> 100 µM (inactive)	> 100 µM (inactive)	> 100 µM (inactive)	> 100 µM (inactive)	> 100 µM (inactive)	> 100 µM (inactive)	> 100 µM (inactive)	> 100 µM (inactive)	> 100 µM (inactive)		> 100 µM (inactive)	
CCN(CC)/[N+]([O-])=N/OS(=O)(=O)N(C)C	> 100 µM (inactive)	> 100 µM (inactive)	> 100 µM (inactive)	> 100 µM (inactive)	> 100 µM (inactive)	> 100 µM (inactive)	> 100 µM (inactive)	> 100 µM (inactive)	> 100 µM (inactive)	> 100 µM (inactive)	> 100 µM (inactive)	> 100 µM (inactive)	> 100 µM (inactive)	> 100 µM (inactive)	> 100 µM (inactive)	> 100 µM (inactive)	> 100 µM (inactive)	> 100 µM (inactive)	> 100 µM (inactive)	
Cc1ccc(/C=C(\C#N)c2ccccc2)cc1	> 100 µM (inactive)	> 100 µM (inactive)	> 100 µM (inactive)	> 100 µM (inactive)	> 100 µM (inactive)	> 100 µM (inactive)	> 100 µM (inactive)			> 100 µM (inactive)	> 100 µM (inactive)	> 100 µM (inactive)				> 100 µM (inactive)		> 100 µM (inactive)	> 100 µM (inactive)	
CC(OC(C)(C)C)C(NC(=O)C(CCCCNC(=O)OC(C)(C)C)NC(=O)C(Cc1c[nH]c2ccccc12)NC(=O)C(N)Cc1ccccc1)C(=O)NC(Cc1ccccc1)C(=O)NC1(C(=O)O)CCCC1 (centres undefined) (H-FWK(Boc)T(tBu)F[Ac5c]-OH; configuration not given here)	> 100 µM (inactive)	> 100 µM (inactive)	> 100 µM (inactive)	> 100 µM (inactive)	> 100 µM (inactive)	> 100 µM (inactive)	> 100 µM (inactive)	> 100 µM (inactive)	> 100 µM (inactive)	> 100 µM (inactive)	> 100 µM (inactive)	> 100 µM (inactive)	> 100 µM (inactive)	> 100 µM (inactive)	> 100 µM (inactive)	> 100 µM (inactive)	> 100 µM (inactive)	> 100 µM (inactive)	> 100 µM (inactive)	
